Measured values from ChEMBL document CHEMBL3217680, “Synthesis and antiproliferative activity of some 3-(pyrid-2-yl)-pyrazolines” (Medchemcomm, 2013).
Activity calls are given as the source filed them. No cut-off for these calls is given here.

How the values were obtained:
HT-29 [1] = assay: Cell cycle arrest in human HT-29 cells assessed as accumulation at G2/M phase at 100 nM by […]propidium iodide staining-based FACS analysis (reference value: 22.8 %); assay type: functional
[2] = Growth inhibition of human Hs 578T cells; assay type: functional
[3] = Growth inhibition of human EKVX cells; assay type: functional
SNB-19 = assay: Growth inhibition of human SNB19 cells; assay type: functional
HT-29 [4] = assay: Inhibition of microtubule formation in human HT-29 cells at 5 uM using Dm1a tubulin antibodies by confocal microscopy; assay type: cell-based
[5] = Growth inhibition of human MOLT4 cells; assay type: functional; details: MOLT-4
[6] = Growth inhibition of human SF539 cells; assay type: functional; details: SF-539
MDA-MB-231 [7] = assay: Antiproliferative activity against human MDA-MB-231 cells by MTS assay; assay type: functional, cell-based
[8] = Growth inhibition of human HCT15 cells; assay type: functional; details: HCT-15
[9] = Growth inhibition of human LOXIMVI cells; assay type: functional; details: LOX IMVI
TK-10 = assay: Growth inhibition of human TK10 cells; assay type: functional
SN12C = assay: Growth inhibition of human SN12C cells; assay type: functional
SK-MEL-5 = assay: Growth inhibition of human SK-MEL-5 cells; assay type: functional
HCT-116 = assay: Growth inhibition of human HCT116 cells; assay type: functional
Tubulin (Homo sapiens) = Tubulin (Homo sapiens) (UniProt P68371+Q9H4B7+P0DPH7+P68366+Q13509+Q71U36+P04350+Q3ZCM7+P07437+P68363+Q9BQE3+Q6PEY2+Q13885+Q9BVA1+Q9BUF5); assay: Inhibition of tubulin (unknown origin) polymerization at 20 uM; assay type: protein-complex assay
NCI-H460 = assay: Growth inhibition of human NCI-H460 cells; assay type: functional
CCRF-CEM = assay: Growth inhibition of human CCRF-CEM cells; assay type: functional
HOP-62 = assay: Growth inhibition of human HOP62 cells; assay type: functional
A498 = assay: Growth inhibition of human A498 cells; assay type: functional
A549 = assay: Growth inhibition of human A549/ATCC cells; assay type: functional
SNB-75 = assay: Growth inhibition of human SNB75 cells; assay type: functional
MDA-MB-231 [10] = assay: Growth inhibition of human MDA-MB-231 cells; assay type: functional
MCF7 = assay: Growth inhibition of human MCF7 cells; assay type: functional
[11] = Growth inhibition of human OVCAR3 cells; assay type: functional; details: OVCAR-3
[12] = Growth inhibition of human UACC257 cells; assay type: functional; details: UACC-257
ACHN = assay: Growth inhibition of human ACHN cells; assay type: functional
SK-OV-3 = assay: Growth inhibition of human SKOV3 cells; assay type: functional
MDA-MB-435 = assay: Growth inhibition of human MDA-MB-435 cells; assay type: functional
[13] = Growth inhibition of human OVCAR4 cells; assay type: functional; details: OVCAR-4
NCI-H522 = assay: Growth inhibition of human NCI-H522 cells; assay type: functional
[14] = Growth inhibition of human RXF393 cells; assay type: functional; details: RXF 393
786-0 = assay: Growth inhibition of human 786-0 cells; assay type: functional
PC-3 = assay: Growth inhibition of human PC3 cells; assay type: functional
Malme-3M = assay: Growth inhibition of human MALME-3M cells; assay type: functional
HT-29 [15] = assay: Cell cycle arrest in human HT-29 cells assessed as accumulation at G2/M phase at 1 uM by […]propidium iodide staining-based FACS analysis (reference value: 22.8 %); assay type: functional
HT-29 [16] = assay: Cell cycle arrest in human HT-29 cells assessed as accumulation at S phase at 100 nM by […]propidium iodide staining-based FACS analysis (reference value: 13.6 %); assay type: functional
M14 = assay: Growth inhibition of human M14 cells; assay type: functional
[17] = Growth inhibition of human HCC2998 cells; assay type: functional; details: HCC 2998
CAKI-1 = assay: Growth inhibition of human CAKI-1 cells; assay type: functional
NCI-H322M = assay: Growth inhibition of human NCI-H322M cells; assay type: functional
U-251 = assay: Growth inhibition of human U251 cells; assay type: functional
HT-29 [18] = assay: Cell cycle arrest in human HT-29 cells assessed as accumulation at S phase at 1 uM by […]propidium iodide staining-based FACS analysis (reference value: 13.6 %); assay type: functional
HT-29 [19] = assay: Cell cycle arrest in human HT-29 cells assessed as accumulation at G1 phase at 1 uM by […]propidium iodide staining-based FACS analysis (reference value: 60.2 %); assay type: functional
[20] = Growth inhibition of human NCI-ADR-RES cells; assay type: functional
SK-MEL-2 = assay: Growth inhibition of human SK-MEL-2 cells; assay type: functional
HT-29 [21] = assay: Cell cycle arrest in human HT-29 cells assessed as accumulation at G1 phase at 5 uM by […]propidium iodide staining-based FACS analysis (reference value: 60.2 %); assay type: functional
SR = assay: Growth inhibition of human SR cells; assay type: functional
HT-29 [22] = assay: Cell cycle arrest in human HT-29 cells assessed as accumulation at S phase at 5 uM by […]propidium iodide staining-based FACS analysis (reference value: 13.6 %); assay type: functional
NCI-H23 = assay: Growth inhibition of human NCI-H23 cells; assay type: functional
IGROV-1 = assay: Growth inhibition of human IGROV1 cells; assay type: functional
DU-145 = assay: Growth inhibition of human DU145 cells; assay type: functional
T47D = assay: Growth inhibition of human T47D cells; assay type: functional
HT-29 [23] = assay: Cell cycle arrest in human HT-29 cells assessed as accumulation at G2/M phase at 5 uM by […]propidium iodide staining-based FACS analysis (reference value: 22.8 %); assay type: functional
HT-29 [24] = assay: Cell cycle arrest in human HT-29 cells assessed as accumulation at G1 phase at 100 nM by […]propidium iodide staining-based FACS analysis (reference value: 60.2 %); assay type: functional
NCI-H226 = assay: Growth inhibition of human NCI-H226 cells; assay type: functional
SF-268 = assay: Growth inhibition of human SF268 cells; assay type: functional
COLO 205 = assay: Growth inhibition of human COLO205 cells; assay type: functional
HL-60(TB) = assay: Growth inhibition of human HL-60(TB) cells; assay type: functional
[25] = Growth inhibition of human HOP92 cells; assay type: functional; details: HOP-92
[26] = Growth inhibition of human UO31 cells; assay type: functional; details: UO-31
RPMI-8226 = assay: Growth inhibition of human RPMI8226 cells; assay type: functional
[27] = Growth inhibition of human BT549 cells; assay type: functional; details: BT-549
SK-MEL-28 = assay: Growth inhibition of human SK-MEL-28 cells; assay type: functional
MDA-MB-468 = assay: Growth inhibition of human MDA-MB-468 cells; assay type: functional
[28] = Growth inhibition of human OVCAR8 cells; assay type: functional; details: OVCAR-8
SW-620 = assay: Growth inhibition of human SW620 cells; assay type: functional
KM12 = assay: Growth inhibition of human KM12 cells; assay type: functional
[29] = Growth inhibition of human UACC62 cells; assay type: functional; details: UACC-62
HT-29 [30] = assay: Antiproliferative activity against human HT-29 cells by MTS assay; assay type: functional, cell-based
HT-29 [31] = assay: Growth inhibition of human HT-29 cells; assay type: functional
[32] = Growth inhibition of human OVCAR5 cells; assay type: functional; details: OVCAR-5
HT-29 [33] = assay: Inhibition of microtubule formation in human HT-29 cells at 100 nM using Dm1a tubulin antibodies by confocal microscopy; assay type: cell-based

COc1cc(C(=O)N2N=C(c3ccccn3)C[C@@H]2c2ccccc2)cc(OC)c1OC
Activity (HT-29 [1]): 88.8%
GI50 [2]: 9180 nM
GI50 [3]: > 100000 nM
GI50 (SNB-19): 1890 nM
inhibition (HT-29 [4]): Active
GI50 [5]: 4460 nM
GI50 [6]: 1060 nM
IC50 (MDA-MB-231 [7]): 690 nM
GI50 [8]: 848 nM
GI50 [9]: 1130 nM
GI50 (TK-10): > 100000 nM
GI50 (SN12C): 3530 nM
GI50 (SK-MEL-5): 432 nM
GI50 (HCT-116): 586 nM
inhibition (Tubulin (Homo sapiens)): Active
GI50 (NCI-H460): 505 nM
GI50 (CCRF-CEM): 2080 nM
GI50 (HOP-62): 1820 nM
GI50 (A498): 943 nM
GI50 (A549): 952 nM
GI50 (SNB-75): 277 nM
GI50 (MDA-MB-231 [10]): 989 nM
GI50 (MCF7): 324 nM
GI50 [11]: 719 nM
GI50 [12]: > 100000 nM
GI50 (ACHN): 4290 nM
GI50 (SK-OV-3): 762 nM
GI50 (MDA-MB-435): 273 nM
GI50 [13]: 5950 nM
GI50 (NCI-H522): 688 nM
GI50 [14]: 1030 nM
GI50 (786-0): 1540 nM
GI50 (PC-3): > 100000 nM
GI50 (Malme-3M): > 100000 nM
Activity (HT-29 [15]): 49.7%
Activity (HT-29 [16]): 2.8%
GI50 (M14): 801 nM
GI50 [17]: 2320 nM
GI50 (CAKI-1): 493 nM
GI50 (NCI-H322M): > 100000 nM
GI50 (U-251): 868 nM
Activity (HT-29 [18]): 10.3%
Activity (HT-29 [19]): 38.5%
GI50 [20]: 519 nM
GI50 (SK-MEL-2): 699 nM
Activity (HT-29 [21]): 2.3%
GI50 (SR): 415 nM
Activity (HT-29 [22]): 2%
GI50 (NCI-H23): 3450 nM
GI50 (IGROV-1): 7130 nM
GI50 (DU-145): 4260 nM
GI50 (T47D): > 100000 nM
Activity (HT-29 [23]): 94.8%
Activity (HT-29 [24]): 7.9%
GI50 (NCI-H226): 1330 nM
GI50 (SF-268): 33400 nM
GI50 (COLO 205): 585 nM
GI50 (HL-60(TB)): 747 nM
GI50 [25]: > 100000 nM
GI50 [26]: 5010 nM
GI50 (RPMI-8226): 66300 nM
GI50 [27]: 5130 nM
GI50 (SK-MEL-28): 1510 nM
GI50 (MDA-MB-468): 417 nM
GI50 [28]: 3280 nM
GI50 (SW-620): 567 nM
GI50 (KM12): 711 nM
GI50 [29]: 541 nM
IC50 (HT-29 [30]): 2530 nM
GI50 (HT-29 [31]): 431 nM
GI50 [32]: 4010 nM

NC(=S)N1N=C(c2ccccn2)C[C@H]1c1ccccc1
IC50 (MDA-MB-231 [7]): 140000 nM
IC50 (HT-29 [30]): 350000 nM

CC(=O)N1N=C(c2ccccn2)CC1c1ccccc1 (centres undefined)
IC50 (MDA-MB-231 [7]): 294000 nM
IC50 (HT-29 [30]): 161000 nM

O=C(N1N=C(c2ccccn2)CC1c1ccccc1)C(F)(F)F (centres undefined)
IC50 (MDA-MB-231 [7]): > 500000 nM
IC50 (HT-29 [30]): > 500000 nM

c1ccc(C2CC(c3ccccn3)=NN2c2ccccc2)cc1 (centres undefined)
IC50 (MDA-MB-231 [7]): 60200 nM
IC50 (HT-29 [30]): 53800 nM

COc1cc2c(c(OC)c1OC)-c1ccc(OC)c(=O)cc1[C@@H](NC(C)=O)CC2 [COLCHICINE]
IC50 (MDA-MB-231 [7]): 8 nM
inhibition (HT-29 [33]): Active
IC50 (HT-29 [30]): 8 nM

COc1cc(C(=O)N2N=C(c3ccccn3)CC2c2cc(OC)c(OC)c(OC)c2)cc(OC)c1OC (centres undefined)
IC50 (MDA-MB-231 [7]): 11400 nM
IC50 (HT-29 [30]): 22500 nM
